Measurements published in patent US20050130232A1, “Methods of screening for compounds that modulate hormone receptor activity” (Allergan, Inc., priority 2001, published 2005).

What was measured:
[1] = biological target: T1, RXR-associated protein kinase in Flag-RXR immunocomplexes (Homo sapiens, UniProt P19793); test: In vitro kinase reaction with [γ-32P]ATP on Flag-RXR immunocomplexes from transfected HEK 293 cells; assay type: cell-based; settings: transfected HEK 293 cells treated with ligand before anti-Flag immunoprecipitation
T1 construct: expressed in transfected cells; host or cells: HEK 293
T1 sequence (P19793 1-462): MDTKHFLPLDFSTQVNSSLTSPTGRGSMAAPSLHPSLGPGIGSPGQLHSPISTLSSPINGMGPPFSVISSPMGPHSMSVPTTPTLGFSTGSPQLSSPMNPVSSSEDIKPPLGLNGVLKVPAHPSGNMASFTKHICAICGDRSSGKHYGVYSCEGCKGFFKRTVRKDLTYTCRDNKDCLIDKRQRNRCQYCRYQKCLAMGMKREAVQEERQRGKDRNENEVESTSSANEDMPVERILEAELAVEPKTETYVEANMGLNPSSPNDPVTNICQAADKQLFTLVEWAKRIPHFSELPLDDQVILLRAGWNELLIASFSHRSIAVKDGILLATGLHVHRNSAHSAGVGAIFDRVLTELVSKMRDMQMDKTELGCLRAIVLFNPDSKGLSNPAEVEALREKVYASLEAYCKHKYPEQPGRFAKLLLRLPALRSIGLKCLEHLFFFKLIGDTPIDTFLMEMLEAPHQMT
Source text: (§1) Total cell lysates were immunoprecipitated with anti-Flag antibody (M2). Aliquots of the immunocomplexes were used for the in vitro kinase reaction with [γ-^32P]ATP and separated on SDS-PAGE. Phosphorylated proteins were detected by autoradiography (top panel). Additional aliquots of the immunocomplexes were subjected to immunoblotting with polyclonal anti-RXR antisera (D20; bottom panel). (B) Phosphoamino acid analysis. Flag-RXR and the 160-kDa protein were phosphorylated in vitro and separated on SDS-PAGE as described above, then transferred onto PVDF membrane, detected by autoradiography, and cut out for hydrolysis with acid (6 N HCl). The phosphorylated amino acids and standards (P-Ser, P-Thr, and P-Tyr) were separated by thin-layer chromatography. Positions of the standards P-Ser, P-Thr, and P-Tyr were visualized by ninhydrin staining and are indicated by arrows. (C) In vivo metabolic labeling of transfected HEK 293 cells. […] Cells were washed with phosphate-free medium and starved for 90 minutes before incubation with [^32P]orthophosphate for another 4 hours. […] Total cell lysates were immunoprecipitated with anti-Flag antibody (M2) and subjected to separation on SDS-PAGE. Phosphorylated proteins were detected by autoradiography.
(§2) Total cell lysates were subjected to immunoprecipitation, and the in vitro kinase reaction performed as described above.
(§3) Cell lysis, immunoprecipitation with anti-Flag (M2), in vitro kinase assay, and detection of the phosphorylated proteins in the RXRα immunoprecipitated complexes were performed as described above.
(§4) Cell culture and transient transfection was performed as follows. HEK 293 cells were grown in Dulbecco's modified Eagle's medium (DMEM) supplemented with 10% fetal bovine serum (FBS), 100U of penicillin per ml and 10 μg of streptomycion per ml at 37° C. in 5% CO2. For expression of RXR protein, 100-mm dishes of cells were transfected at 50% confluence with 2 μg of plasmid DNA using Lipofectamine (Life Technologies) as specified by the manufacturer. At 32 hours post-transfection, cells were starved by incubating in DMEM medium with 2.5% charcoal-treated fetal bovine serum or 0.1-0.5% calf bovine serum overnight, and then treated with indicated agents. Cells were harvested by aspirating medium, rinsing in phosphate buffered saline (PBS), and extracting into Lysis Buffer (30 mM Tris-HCL, pH 7.4, 0.5% Nonidet P-40, 10% glycerol, 150 mM NaCl, 1 mM EDTA, 40 mM NaF, 1 mM sodium orthovanadate, and 0.5 mM phenylmethylsufonyl fluoride, and 1× protease inhibitors, (Roche Diagnostics) or 1×SDS Sample Buffer.
(§5) Immunoprecipitation was performed essentially as follows. Cells were solubilized in cold Lysis Buffer and subsequently clarified by centrifugation at 20,000 g for 10 minutes at 4° C. Immunoprecipitations were performed at 4° C. by incubating clarified cell extracts with the indicated antibodies (2 μg/ml) and protein A/G-agarose beads (1:30 dilution of a 50% suspension) on a rotating wheel for 4 hours to overnight. Agarose beads were pelleted by low speed centrifugation and washed extensively with ice-cold Lysis Buffer.
(§6) Protein kinase assays were performed as follows. Immunoprecipitated complexes were resuspended in 15 μl of Kinase Assay Buffer (30 mM Tris-HCl, pH 7.4 and 10 mM MgCl2). Kinase reactions were initiated by addition of 2.5 μl of 50 μM [γ-^32P]ATP (10 μCi) to the immune-complexes, followed by incubation at 25° C. with occasional shaking for 20 minutes, and terminated by addition of 6 μl 4×SDS Sample Buffer. After heating at 100° C. for 5 minutes, the reaction mixtures were resolved by 4-12% SDS-PAGE. Incorporation of ^32P into RXR or other proteins was determined by autoradiography.

[2] = tested on: RXR-associated protein kinase in Flag-RXR immunocomplexes; test: as above; assay type: cell-based, human
Source text: as §1, §2, §3, §4, §5, §6

[3] = biological target: T2, protein kinase A activity associated with RXRα (Homo sapiens, UniProt P19793); test: Protein kinase A activity in anti-Flag immunoprecipitates of PH-RXRα or RXRα transfected HEK 293 cells, synthetic peptide substrate; assay type: cell-based; settings: Flag-RXRα lacking pleckstrin homology domain, 10^-7 M, substrate LRRASLG, vs control vehicle
T2 sequence (P19793 1-462): T1 sequence (P19793 1-462)
Experimental: 293 cells were transfected with PH-RXRα. Sample 1: 0.1% DMSO (10 minutes). […] Sample 3: 0.1% DMSO (30 minutes).
Sample 1: 0.1% DMSO (10 minutes). […] Sample 3: 0.1% DMSO (30 minutes). […] Sample 5: No immunoprecipitate.
Sample 1: 0.1% DMSO. […] Sample 3: 0.1% DMSO with PKA inhibitor. […] Sample 5: 0.1% DMSO.
Following immunoprecipitation with anti-Flag antibody, the synthetic PKA substrate, LRRASLG (SEQ ID NO: 59), was added to the immunoprecipitate along with γ-ATP.
HEK 293 were cultured and transfected essentially as described above. Immunoprecipitates were prepared using the anti-Flag antibody, M2, as described above. Assays for protein kinase A activity were performed as follows. Immunoprecipitated complexes were resuspended in 40 μl of Kinase Assay Buffer (30 mM Tris-HCl, pH 7.4 and 10 mM MgCl2). Kinase reactions were initiated by addition of 10 μl of 500 μM synthetic peptide LRRASLG (SEQ ID NO: 59) or […] (SEQ ID NO: 60) prepared by Upstate Biotechnology (Lake Placid, N.Y.) and addition of 50 μM [γ-^32P]ATP (10 μCi) to the immune-complexes. […]
Incorporated ^32P was separated from free label by applying the reaction mixture onto P81 phosphocellulose paper and subsequently washing the paper three times with 0.75% phosphoric acid and once with acetone. Protein kinase reaction samples were analyzed in a scintillation counter to determine the amount of ^32P-incorporation.

CC(/C=C/[C@@H]1C[C@]1(C)c1ccc2c(c1)C(C)(C)CCC2(C)C)=C\C(=O)O [AGN194204]
phosphorylation of RXR and 160 kDa protein in Flag-RXR immunocomplexes [1]: contained a kinase phosphorylated RXR and a 160 kDa protein
recruitment of kinase activity to the immunocomplex ([2]; AF-2 region deleted from RXRα): kinase activity was not recruited
recruitment of kinase activity to the immunocomplex ([2]; RXRα deletion mutants containing an intact E region): recruited kinase activity
protein kinase A activity associated with RXRα [3]: significantly enhanced
